≈ marks a conversion by molar mass, not a printed value. One block for each molecule: values may come before it. Calls of active or inactive are those of the source. The calls are words filed in the database; no cut-off is given here.
Experiments:
Escherichia coli [1] = test: Antibacterial activity against Escherichia coli MTCC 443 by broth dilution method; format: functional
Staphylococcus aureus = test: Antibacterial activity against Staphylococcus aureus MTCC 96 by broth dilution method; format: functional
Proteus vulgaris = test: Antibacterial activity against Proteus vulgaris MTCC 1771 by broth dilution method; format: functional
Bacillus subtilis = test: Antibacterial activity against Bacillus subtilis MTCC 441 by broth dilution method; format: functional
Escherichia coli [2] = test: Induction of DNA cleavage of Escherichia coli pUC18 at 100 ug/ml by agarose gel electrophoresis
MCF7 = test: Cytotoxicity against human MCF7 cells assessed as cell viability after 48 hrs by MTT assay; format: functional, cell-based; details: MCF7, 48 h
HeLa = test: Cytotoxicity against human HeLa cells assessed as cell viability after 48 hrs by MTT assay; format: functional, cell-based
HEK293 = test: Cytotoxicity against HEK293 cells assessed as cell viability after 48 hrs by MTT assay; format: cell-based; details: Homo sapiens, HEK293, 48 h
Escherichia coli [3] = test: Induction of DNA cleavage of Escherichia coli pUC18 at 50 ug/ml by agarose gel electrophoresis
[4] = Anticancer activity against mouse EAC cells xenografted in Swiss albino mouse assessed as tumor volume at 10 mg/kg, ip administered for 9 days measured after 14 days (reference value: 12.15 +/- 0.5 ml); format: functional, Ehrlich
[5] = Anticancer activity against mouse EAC cells xenografted in Swiss albino mouse assessed as packed cell volume at 10 mg/kg, ip administered for 9 days measured after 14 days […] (reference value: 2.62 +/- 0.5 ml); format: functional, Ehrlich
[6] = Anticancer activity against mouse EAC cells xenografted in Swiss albino mouse assessed as viable tumor cell count at 10 mg/kg, ip administered for 9 days measured after 14 days by trypan blue incorporation method (reference value: 7.30 +/- 0.6 10^7/ml); format: functional, Ehrlich
Mus musculus [7] = test: Effect on hemoglobin level in Swiss albino mouse xenografted with mouse EAC cells at 5 mg/kg, ip administered for 9 days measured on day 14 (reference value: 5.67 +/- 0.8 g%); format: functional, Ehrlich
Mus musculus [8] = test: Effect on RBC level in Swiss albino mouse xenografted with mouse EAC cells at 5 mg/kg, ip administered for 9 days measured on day 14 (reference value: 3.01+/- 0.75 10^6/mm3); format: functional, Ehrlich
Mus musculus [9] = test: Effect on WBC level in Swiss albino mouse xenografted with mouse EAC cells at 5 mg/kg, ip administered for 9 days measured on day 14 (reference value: 22.07 +/- 0.11 10^3/mm3); format: functional, Ehrlich
Mus musculus [10] = test: Effect on SGPT level in Swiss albino mouse xenografted with mouse EAC cells at 5 mg/kg, ip administered for 9 days measured on day 14 (reference value: 55.3 +/- 0.52 IU/L); format: functional, Ehrlich
Mus musculus [11] = test: Effect on SGOT level in Swiss albino mouse xenografted with mouse EAC cells at 5 mg/kg, ip administered for 9 days measured on day 14 (reference value: 116.04 +/- 0.14 IU/L); format: functional, Ehrlich
Mus musculus [12] = test: Effect on total protein level in Swiss albino mouse xenografted with mouse EAC cells at 5 mg/kg, ip administered for 9 days measured on day 14 (reference value: 7.84 +/- 0.36 […]); format: functional, Ehrlich
Mus musculus [13] = test: Effect on hemoglobin level in Swiss albino mouse xenografted with mouse EAC cells at 10 mg/kg, ip administered for 9 days measured on day 14 (reference value: 5.67 +/- 0.8 g%); format: functional, Ehrlich
Mus musculus [14] = test: Effect on RBC level in Swiss albino mouse xenografted with mouse EAC cells at 10 mg/kg, ip administered for 9 days measured on day 14 (reference value: 3.01+/- 0.75 10^6/mm3); format: functional, Ehrlich
Mus musculus [15] = test: Effect on WBC level in Swiss albino mouse xenografted with mouse EAC cells at 10 mg/kg, ip administered for 9 days measured on day 14 (reference value: 22.07 +/- 0.11 10^3/mm3); format: functional, Ehrlich
Mus musculus [16] = test: Effect on SGPT level in Swiss albino mouse xenografted with mouse EAC cells at 10 mg/kg, ip administered for 9 days measured on day 14 (reference value: 55.3 +/- 0.52 IU/L); format: functional, Ehrlich
Mus musculus [17] = test: Effect on SGOT level in Swiss albino mouse xenografted with mouse EAC cells at 10 mg/kg, ip administered for 9 days measured on day 14 (reference value: 116.04 +/- 0.14 IU/L); format: functional, Ehrlich
Mus musculus [18] = test: Effect on total protein level in Swiss albino mouse xenografted with mouse EAC cells at 10 mg/kg, ip administered for 9 days measured on day 14 (reference value: 7.84 +/- 0.36 […]); format: functional, Ehrlich
Mus musculus [19] = test: Effect on body weight in Swiss albino mouse xenografted with mouse EAC cells at 5 mg/kg, ip administered for 9 days (reference value: 13.57 +/- 0.4 g); format: functional, Ehrlich
[20] = Anticancer activity against mouse EAC cells xenografted in Swiss albino mouse assessed as mean survival time at 5 mg/kg, ip administered for 9 days measured for 30 days (reference value: 12.8 +/- 0.7 days); format: functional, Ehrlich
[21] = Anticancer activity against mouse EAC cells xenografted in Swiss albino mouse assessed as percent increase in life span at 5 mg/kg, ip administered for 9 days measured for 30 days; format: functional; details: Ehrlich
Mus musculus [22] = test: Effect on body weight in Swiss albino mouse xenografted with mouse EAC cells at 10 mg/kg, ip administered for 9 days (reference value: 13.57 +/- 0.4 g); format: functional, Ehrlich
[23] = Anticancer activity against mouse EAC cells xenografted in Swiss albino mouse assessed as tumor volume at 5 mg/kg, ip administered for 9 days measured after 14 days (reference value: 12.15 +/- 0.5 ml); format: functional, Ehrlich
[24] = Anticancer activity against mouse EAC cells xenografted in Swiss albino mouse assessed as packed cell volume at 5 mg/kg, ip administered for 9 days measured after 14 days […] (reference value: 2.62 +/- 0.5 ml); format: functional, Ehrlich
[25] = Anticancer activity against mouse EAC cells xenografted in Swiss albino mouse assessed as viable tumor cell count at 5 mg/kg, ip administered for 9 days measured after 14 days by trypan blue incorporation method (reference value: 7.30 +/- 0.6 10^7/ml); format: functional, Ehrlich
[26] = Anticancer activity against mouse EAC cells xenografted in Swiss albino mouse assessed as mean survival time at 10 mg/kg, ip administered for 9 days measured for 30 days (reference value: 12.8 +/- 0.7 days); format: functional, Ehrlich
[27] = Anticancer activity against mouse EAC cells xenografted in Swiss albino mouse assessed as percent increase in life span at 10 mg/kg, ip administered for 9 days measured for 30 days; format: functional; details: Ehrlich

MIC (Escherichia coli [1]): > 150 µg/mL
MIC (Staphylococcus aureus): > 150 µg/mL
MIC (Proteus vulgaris): > 150 µg/mL
MIC (Bacillus subtilis): > 150 µg/mL
Compound: Cc1cc(C)cc(-n2cc(COC(=O)c3cc4ccccc4n3Cc3cn(-c4cc(C)cc(C)c4)nn3)nn2)c1
IC50 (MCF7): 45.2 µM
IC50 (HeLa): 28.8 µM
IC50 (HEK293): 50.2 µM

MIC (Escherichia coli [1]): > 150 µg/mL
MIC (Staphylococcus aureus): > 150 µg/mL
MIC (Proteus vulgaris): > 150 µg/mL
MIC (Bacillus subtilis): > 150 µg/mL
Activity (Escherichia coli [3]): Active
Compound: CCCCc1ccc(-n2cc(COC(=O)c3cc4ccccc4[nH]3)nn2)cc1
IC50 (MCF7): 28.8 µM
IC50 (HeLa): > 200 µM
IC50 (HEK293): 24.2 µM

MIC (Escherichia coli [1]): > 150 µg/mL
MIC (Staphylococcus aureus): > 150 µg/mL
MIC (Proteus vulgaris): 9.38 µg/mL (≈ 17.5 µM)
MIC (Bacillus subtilis): > 150 µg/mL
Compound: COc1ccc(-n2cc(COC(=O)c3cc4ccccc4n3Cc3cn(-c4ccc(OC)cc4)nn3)nn2)cc1
IC50 (MCF7): 100 µM
IC50 (HeLa): 56.1 µM
IC50 (HEK293): 43.9 µM

MIC (Escherichia coli [1]): > 150 µg/mL
MIC (Staphylococcus aureus): > 150 µg/mL
MIC (Proteus vulgaris): > 150 µg/mL
MIC (Bacillus subtilis): > 150 µg/mL
Compound: Cc1cccc(-n2cc(COC(=O)c3cc4ccccc4n3Cc3cn(-c4cccc(C)c4C)nn3)nn2)c1C
IC50 (MCF7): > 200 µM
IC50 (HeLa): > 200 µM
IC50 (HEK293): 14.1 µM

MIC (Escherichia coli [1]): > 150 µg/mL
MIC (Staphylococcus aureus): > 150 µg/mL
MIC (Proteus vulgaris): > 150 µg/mL
MIC (Bacillus subtilis): > 150 µg/mL
Activity (Escherichia coli [2]): Active
Compound: Cc1cc(C)cc(-n2cc(COC(=O)c3cc4ccccc4[nH]3)nn2)c1
IC50 (MCF7): 30.5 µM
IC50 (HeLa): 30.2 µM
IC50 (HEK293): 12.5 µM

More lines, now with the values behind:

Compound: O=C(OCc1cn(-c2ccccc2Br)nn1)c1cc2ccccc2n1Cc1cn(-c2ccccc2Br)nn1
MIC (Escherichia coli [1]): > 150 µg/mL
MIC (Staphylococcus aureus): 2.34 µg/mL (≈ 3.7 µM)
MIC (Proteus vulgaris): > 150 µg/mL
MIC (Bacillus subtilis): 1.17 µg/mL (≈ 1.85 µM)
Activity (Escherichia coli [2]): Active
IC50 (MCF7): 64.1 µM
IC50 (HeLa): 35.9 µM
IC50 (HEK293): 12.1 µM

Compound: COc1ccc(-n2cc(COC(=O)c3cc4ccccc4[nH]3)nn2)cc1
MIC (Escherichia coli [1]): > 150 µg/mL
MIC (Staphylococcus aureus): > 150 µg/mL
MIC (Proteus vulgaris): 4.69 µg/mL (≈ 13.5 µM)
MIC (Bacillus subtilis): > 150 µg/mL
IC50 (MCF7): 16.2 µM
IC50 (HeLa): 16.1 µM
IC50 (HEK293): 42.5 µM

Compound: Cc1cccc(-n2cc(COC(=O)c3cc4ccccc4[nH]3)nn2)c1C
MIC (Escherichia coli [1]): > 150 µg/mL
MIC (Staphylococcus aureus): 4.69 µg/mL (≈ 13.5 µM)
MIC (Proteus vulgaris): > 150 µg/mL
MIC (Bacillus subtilis): > 150 µg/mL
IC50 (MCF7): 17.1 µM
IC50 (HeLa): 30.3 µM
IC50 (HEK293): 15.3 µM

Compound: CCCCc1ccc(-n2cc(COC(=O)c3cc4ccccc4n3Cc3cn(-c4ccc(CCCC)cc4)nn3)nn2)cc1
MIC (Escherichia coli [1]): > 150 µg/mL
MIC (Staphylococcus aureus): > 150 µg/mL
MIC (Proteus vulgaris): > 150 µg/mL
MIC (Bacillus subtilis): > 150 µg/mL
IC50 (MCF7): 66.9 µM
IC50 (HeLa): 42.8 µM
IC50 (HEK293): > 200 µM

Compound: O=C(OCc1cn(-c2cccc(C(F)(F)F)c2)nn1)c1cc2ccccc2[nH]1
MIC (Escherichia coli [1]): 2.34 µg/mL (≈ 6.07 µM)
MIC (Staphylococcus aureus): > 150 µg/mL
MIC (Proteus vulgaris): > 150 µg/mL
MIC (Bacillus subtilis): 4.69 µg/mL (≈ 12.1 µM)
Activity (Escherichia coli [2]): Active
IC50 (MCF7): 16.5 µM
IC50 (HeLa): 11.7 µM
IC50 (HEK293): 32.7 µM

Compound: O=C(OCc1cn(-c2ccccc2Br)nn1)c1cc2ccccc2[nH]1
MIC (Escherichia coli [1]): > 150 µg/mL
MIC (Staphylococcus aureus): > 150 µg/mL
MIC (Proteus vulgaris): > 150 µg/mL
MIC (Bacillus subtilis): > 150 µg/mL
IC50 (MCF7): 38.8 µM
IC50 (HeLa): 17.3 µM
IC50 (HEK293): > 200 µM

Compound: CN[C@@H]1[C@H](O[C@H]2[C@H](O[C@H]3[C@H](O)[C@@H](O)[C@H](N=C(N)N)[C@@H](O)[C@@H]3N=C(N)N)O[C@@H](C)[C@]2(O)C=O)O[C@@H](CO)[C@H](O)[C@H]1O [STREPTOMYCIN]
MIC (Escherichia coli [1]): 6.25 µg/mL (≈ 10.7 µM)
MIC (Staphylococcus aureus): 6.25 µg/mL (≈ 10.7 µM)
MIC (Proteus vulgaris): 3.12 µg/mL (≈ 5.37 µM)
MIC (Bacillus subtilis): 6.25 µg/mL (≈ 10.7 µM)

Compound: O=C(OCc1cn(-c2cccc(C(F)(F)F)c2)nn1)c1cc2ccccc2n1Cc1cn(-c2cccc(C(F)(F)F)c2)nn1
Activity [4]: 5.08 mL
Activity [5]: 0.86 mL
Activity [6]: 5.31 ×10⁷ /ml
Activity (Mus musculus [7]): 7.32 g%
Activity (Mus musculus [8]): 3.78 ×10⁶ /mm3
Activity (Mus musculus [9]): 19.32 ×10³ /mm3
Activity (Mus musculus [10]): 53.7 IU/L
Activity (Mus musculus [11]): 109.03 IU/L
Activity (Mus musculus [12]): 7.02 mg/dL
Activity (Mus musculus [13]): 9.3 g%
Activity (Mus musculus [14]): 4.12 ×10⁶ /mm3
Activity (Mus musculus [15]): 16.32 ×10³ /mm3
Activity (Mus musculus [16]): 45.18 IU/L
Activity (Mus musculus [17]): 98.41 IU/L
Activity (Mus musculus [18]): 5.96 mg/dL
MIC (Escherichia coli [1]): 1.17 µg/mL (≈ 1.92 µM)
MIC (Staphylococcus aureus): > 150 µg/mL
MIC (Proteus vulgaris): > 150 µg/mL
MIC (Bacillus subtilis): 2.34 µg/mL (≈ 3.83 µM)
IC50 (MCF7): 13.3 µM
IC50 (HeLa): 9.89 µM
IC50 (HEK293): 9.08 µM
Activity (Mus musculus [19]): 11.83 g
MST [20]: 17.23 days
ILS at 5 mg/kg [21]: 14.2%
Activity (Mus musculus [22]): 9.7 g
Activity [23]: 9.32 mL
Activity [24]: 1.63 mL
Activity [25]: 6.27 ×10⁷ /ml
MST [26]: 22.56 days
ILS at 10 mg/kg [27]: 34.1%

From ChEMBL document CHEMBL3779769, “Indole-2-carboxylic acid derived mono and bis 1,4-disubstituted 1,2,3-triazoles: Synthesis, characterization and evaluation of anticancer, antibacterial, and DNA-cleavage activities” (Bioorg Med Chem Lett, 2016)
